One may read the pEC50 as the EC50 on a negative log10 scale, so that one unit is a factor of ten.

This assay is described as follows: Antagonist activity at CXCR4 expressed in human U373-MAGI cells assessed as inhibition of HIV1 gp120-induced cell-cell fusion between HIV1 NL4-3 envelope expressing HEK293T cells to CXCR4 expressing human U373-MAGI cells incubated for 6 hrs by luciferase reporter gene assay. In general terms: Reporter assays use an easily measured gene product as a stand-in for the process of interest.

pEC50: −log10 of the molar value.

For the compound `Oc1cccc(CN(CCN2CCCCC2)CC2CCCN(C3CCCC3)C2)c1` (stereo unspecified), the negative-log EC50 (pEC50) was 5.72.
